Experiment [1] has as its system Mycobacterium tuberculosis. Put plainly: microbe, parasite or virus in culture. The following applies: 240 h.
Experiment [2] concerns Mycobacterium tuberculosis.

≈ marks a conversion by molar mass, not a printed value. Calls of active or inactive are those of the source. The rule behind the calls is not given here.

`O=C(O)c1cc(F)c(F)cc1O` gave an MIC in experiment [1] of 0.7 µg/mL (≈ 4.02 µM). In experiment [1], `O=C(O)c1c(O)c(F)c(F)c(F)c1F` came in with an MIC of 0.7 µg/mL (≈ 3.33 µM). For `CC1COc2c(N3CCN(C)CC3)c(F)cc3c(=O)c(C(=O)O)cn1c23` (stereo not given) [OFLOXACIN], in experiment [1], the MIC is 0.1 µg/mL (≈ 0.277 µM).

As to `NNC(=O)c1ccncc1` [ISONIAZID], the MIC entry in experiment [2] was “inactive”.

Take `O=C(O)c1ccc(F)c(F)c1O`: the MIC in experiment [1] is 1.5 µg/mL (≈ 8.62 µM).
